# Tests used:
# Assay in all cases: relative viability (nuclei count vs DMSO), 5 days (fraction); higher = more cells survive
# [1] = compound: Nc1nc(Nc2ccc3c(c2)CC[C@@H](N2CCCC2)CC3)nn1-c1cc2c(nn1)-c1ccccc1CCC2 [Bemcentinib] + Cc1cc(Nc2cc(N3CCN(C)CC3)nc(Sc3ccc(NC(=O)C4CC4)cc3)n2)n[nH]1 [Tozasertib] (partner 0.1 µM)
# Method in brief: (§1)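 Lung cancer cell lines, seeded in 1536-well plates, were treated the following day by pin tool with a single drug or with five library-drug doses (not always all listed) in √10 steps on top of a fixed anchor-drug dose. Cells were fixed and nuclei stained in one step after 5 days, and nuclei were counted. Relative viability is the nuclei count for treated wells divided by that for vehicle wells, reported as medians of duplicate plates.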
# [2] = compound: CC1=CC=C(C=C1)C(=O)CN2C3=C(CCCC3)SC2=N [Pifithrin_alpha] + COc1cccc2cc(-c3nc([C@H]4CC[C@H](C(=O)O)CC4)n4ncnc(N)c34)[nH]c12 [OSI-027] (partner 0.5 µM)
# Method in brief: as §1
# [3] = compound: Nc1nc(Nc2ccc3c(c2)CC[C@@H](N2CCCC2)CC3)nn1-c1cc2c(nn1)-c1ccccc1CCC2 [Bemcentinib] + C[C@]1(O)C[C@@H](c2nc(-c3ccc4ccc(-c5ccccc5)nc4c3)c3c(N)nccn32)C1 [Linsitinib] (partner 1 µM)
# Method in brief: as §1
# [4] = compound: CC1=CC=C(C=C1)C(=O)CN2C3=C(CCCC3)SC2=N [Pifithrin_alpha] + CC(=O)Nc1cccc(-n2c(=O)n(C3CC3)c(=O)c3c(Nc4ccc(I)cc4F)n(C)c(=O)c(C)c32)c1 [Trametinib] (partner 0.02 µM)
# Method in brief: as §1
Cell Line,relative viability ([1]; first compound 0.1265 µM),relative viability ([1]; first compound 0.4 µM),relative viability ([1]; first compound 1.265 µM),relative viability ([1]; first compound 4 µM),relative viability ([2]; first compound 1 µM),relative viability ([2]; first compound 3.162 µM),relative viability ([2]; first compound 10 µM),relative viability ([2]; first compound 100 µM),relative viability ([3]; first compound 0.04 µM),relative viability ([3]; first compound 0.1265 µM),relative viability ([3]; first compound 0.4 µM),relative viability ([3]; first compound 1.265 µM),relative viability ([3]; first compound 4 µM),relative viability ([4]; first compound 1 µM),relative viability ([4]; first compound 3.162 µM),relative viability ([4]; first compound 10 µM),relative viability ([4]; first compound 31.62 µM),relative viability ([4]; first compound 100 µM),relative viability ([1]; first compound 0.04 µM),relative viability ([2]; first compound 31.62 µM)
NCI-H3122,0.488,0.402,0.427,0.381,1,1.26,1.01,0.786,0.949,1.06,1.02,1.08,1,0.254,0.296,0.25,0.213,0.286,,
PC-3 [JPC-3],0.927,0.897,0.941,0.863,0.676,0.747,0.574,0.618,0.967,0.999,0.902,0.957,1.07,,0.648,,0.614,0.487,0.852,0.545
PC-14,0.706,0.538,0.645,0.601,0.822,0.889,0.827,0.605,0.982,1.02,1.06,1.07,1.08,0.731,0.654,0.547,0.319,0.383,0.584,0.464
RERF-LC-KJ,0.531,0.485,0.553,0.466,0.586,0.477,0.421,0.317,0.918,0.921,0.886,0.849,1,0.861,0.774,0.693,0.747,0.586,0.557,0.393
SK-LU-1,0.363,0.283,0.367,0.335,0.353,0.353,0.354,0.3,1.15,1.42,1.28,1.02,1.13,0.561,0.494,0.43,0.42,0.48,0.342,
SK-MES-1,0.908,1.09,1.03,0.968,0.575,0.59,0.527,0.511,1.18,1.16,1.15,1.32,1.12,0.593,0.518,0.462,0.36,0.403,0.977,0.396
SW 1573,0.166,0.174,0.129,0.194,0.662,0.601,0.572,0.76,0.884,0.753,0.855,0.966,0.835,,0.619,0.567,0.341,0.31,0.18,0.422
UMC-11,0.192,0.2,0.198,0.204,0.537,0.518,0.56,0.456,1.01,1.08,1.06,0.978,0.977,0.73,0.715,0.719,0.657,0.87,0.214,0.485
